ChEMBL document CHEMBL5608113, “Targeting of CAF-induced therapy resistance in CRC organoid-stroma co-cultures” (2024)

Columns and labels:
Assay type in all cases: functional, Homo sapiens
Conditions in all cases: Homo sapiens, read-out: Cell Viability; for viability at 10 µM: Concentration 10 uM; for viability at 1 µM: Concentration 1 uM
[1] = tested on: Colon cancer organoid; assay: Targeting of F14 CAF-induced therapy resistance in O23 CRC organoid-stroma co-culture. Cell viability is reported with Gefitinib.
[2] = tested on: Colon cancer organoid; assay: Targeting of F14 CAF-induced therapy resistance in O14 CRC organoid-stroma co-culture. Cell viability is reported with Gefitinib.
[3] = tested on: Colon cancer organoid; assay: Targeting of F14 CAF-induced therapy resistance in O23 CRC organoid-stroma co-culture. Cell viability is reported with SN-38.
[4] = tested on: Colon cancer organoid; assay: Targeting of F14 CAF-induced therapy resistance in O23 CRC organoid-stroma co-culture. Cell viability is reported without Gefitinib.
[5] = tested on: Colon cancer organoid; assay: Targeting of F14 CAF-induced therapy resistance in O14 CRC organoid-stroma co-culture. Cell viability is reported without Gefitinib.

| SMILES | viability at 10 µM [1] [%] | viability at 10 µM [2] [%] | viability at 10 µM [3] [%] | viability at 10 µM [4] [%] | viability at 10 µM [5] [%] | viability at 1 µM [1] [%] | viability at 1 µM [2] [%] | viability at 1 µM [3] [%] | viability at 1 µM [4] [%] | viability at 1 µM [5] [%] |
| --- | --- | --- | --- | --- | --- | --- | --- | --- | --- | --- |
| NC1(c2ccc(-c3nc4ccn5c(=O)[nH]nc5c4cc3-c3ccccc3)cc2)CCC1 | 19.9 | 32.7 | 19.5 | 24.5 | 53.7 |  |  |  |  |  |
| CO[C@H]1CC[C@H](CNc2ccc(S(=O)(=O)NC(=O)c3ccc(N4CCN(CC5=C(c6ccc(Cl)cc6)CC(C)(C)CC5)CC4)cc3Oc3cnc4[nH]ccc4c3)cc2[N+](=O)[O-])CC1 [A-1211212] | 30.6 | 25 | 32.3 | 83.3 | 40.4 |  |  |  |  |  |
| C[C@H](c1ccc(F)cc1)N(Cc1ccc(Cl)c(C(=O)O)c1)C(=O)c1cnc2ccccc2c1 [PF-05257137] | 41.2 | 51.5 | 93.8 | 81.5 | 84 |  |  |  |  |  |
| Cc1nc(N2CC[C@H](O)C2)ncc1-c1cc(C(F)(F)F)cc2[nH]ncc12 | 51.5 | 21.1 | 82.7 | 123 | 91 |  |  |  |  |  |
| CN(C)C(=O)c1ccc(-c2cc(C(=O)N(C)C3CCCC3)no2)cc1O | 55.9 | 52.8 | 76.4 | 111 | 103 |  |  |  |  |  |
| CC(=O)C1=C(C)N(c2cccc(C(F)(F)F)c2)C(=O)N[C@@H]1c1ccc(C#N)nc1 [BAY-678] | 61.8 | 41.2 | 75.6 | 108 | 103 |  |  |  |  |  |
| O=C([C@@H](Cc1cccc(C(F)(F)F)c1)NS(=O)(=O)c1cc(F)c2c(c1)CCNC2)N1CCCC1 | 55.1 | 65 | 60.3 | 81.5 | 114 |  |  |  |  |  |
| Cc1nc(Cc2cccc(C(F)(F)F)c2)sc1-c1ccc(C(N)=O)nc1 [TP-024n] |  |  |  |  |  | 43.7 | 81.1 | 93.5 | 178 | 123 |
| CC(=O)Nc1cccc(-n2c(=O)n(C3CC3)c(=O)c3c(Nc4ccc(I)cc4F)n(C)c(=O)c(C)c32)c1 [TRAMETINIB] | 1.61 | 0.402 | 1.6 | 1.69 | 1.6 |  |  |  |  |  |
| O=S(=O)(NC1CCC(c2cc(F)ccc2F)(S(=O)(=O)c2ccc(Cl)cc2)CC1)C(F)(F)F (stereo not given) [MRK-560] |  |  |  |  |  | 60.6 | 32.8 | 64.4 | 130 | 73.7 |
| COc1cc(N(C)c2ccnc3ccc(C(F)(F)F)cc23)cc(OC)c1OC | 69.7 | 50.1 | 64.7 | 135 | 109 |  |  |  |  |  |
| CC(=O)C1=C(C)N(c2cccc(C(F)(F)F)c2)C(=O)N[C@H]1c1ccc(C#N)nc1 [BAY-677] | 51.7 | 57.5 | 75 | 93.5 | 107 |  |  |  |  |  |
| NC(=O)c1ccc2nc(-c3ccc(C4(N)CCC4)cc3)c(-c3ccccc3)n2n1 [BAY-1125976] |  |  |  |  |  | 38 | 52.1 | 47.7 | 86 | 152 |
| CCS(=O)(=O)c1cc2cc(C[C@](O)(CC(C)(C)c3ccc(F)cc3C(N)=O)C(F)(F)F)[nH]c2cn1 [BI 653048] | 68.4 | 42.7 | 110 | 161 | 100 |  |  |  |  |  |
| Cc1nc(C2CCN(C(=O)c3ccc(OC(F)(F)F)cc3N)CC2)c2ncc(N3CCN(C)CC3)cc2n1 [BAY-693] | 46.5 | 32.1 | 53.6 | 119 | 76.4 |  |  |  |  |  |
| C[C@H](NC(=O)Nc1cc2[nH]ncc2c(CO)n1)c1ccccn1 [ERKi-NC] | 40.9 | 21.8 | 62.2 | 94.9 | 71.3 |  |  |  |  |  |
